Data set [1] deals with SW480. Description: Inhibition of Wnt/beta-catenin signaling in human SW480 cells assessed as residual activity at IC50 concentration incubated for 12 hrs by Topflash/Fopflash Dual-Glo luciferase reporter assay. The format is cell-based. The following applies: dose 30.0 µM.
In data set [2] the test system is HCT-116. Kind of data set: Inhibition of Wnt/beta-catenin signaling in human HCT-116 cells assessed as residual activity at IC50 concentration incubated for 12 hrs by Topflash/Fopflash Dual-Glo luciferase reporter assay. The format is cell-based. The following applies: dose 30.0 µM. On the technique in general: In a reporter assay the amount or activity of a reporter protein is the signal.

For data set [3], the system named is SW480. Description: Inhibition of cell growth in human SW480 cells incubated for 48 to 72 hrs by XTT method. The format is functional, cell-based. Background: Tetrazolium assays rely on reduction of a dye to a coloured formazan, in cell work by metabolically active cells.
The test system of data set [4] is HCT-116. Kind of data set: Inhibition of cell growth in human HCT-116 cells incubated for 48 to 72 hrs by XTT method. The class given is functional, cell-based.
Data set [5] can be described thus: Metabolic stability in human liver microsomes assessed as intrinsic clearance per mg protein preincubated for 10 mins followed by NADP, glucose-6-phosphate and glucose-6-phosphate dehydrogenase addition and measured upto 60 mins by LC-MS/MS analysis. The class given is ADME, Microsome. Conditions: time < 70 min, read-out: CLH. A general note: Microsomes from liver hold many membrane-bound enzymes, among them those of drug oxidation.

A short description of data set [6]: Metabolic stability in human liver microsomes assessed as half life preincubated for 10 mins followed by NADP, glucose-6-phosphate and glucose-6-phosphate dehydrogenase addition and measured upto 60 mins by LC-MS/MS analysis. The format is ADME, Microsome. Conditions: time < 70 min.
Data set [7] in a line: Metabolic stability in mouse liver microsomes assessed as intrinsic clearance per mg protein preincubated for 10 mins followed by NADP, glucose-6-phosphate and glucose-6-phosphate dehydrogenase addition and measured upto 60 mins by LC-MS/MS analysis. The class given is ADME, Microsome. Conditions: time < 70 min, read-out: CLH.
The nature of data set [8]: Metabolic stability in mouse liver microsomes assessed as half life preincubated for 10 mins followed by NADP, glucose-6-phosphate and glucose-6-phosphate dehydrogenase addition and measured upto 60 mins by LC-MS/MS analysis. The class given is ADME, Microsome. Conditions: time < 70 min.
Data set [9] concerns MDA-MB-231. Description: Antiproliferative activity against human MDA-MB-231 cells at 1.48 to 40 uM incubated for 72 hrs by IncuCyte live-cell imaging analysis. The class given is functional, cell-based. Conditions: dose 1.48-40 µM.
For data set [10], the system named is MDA-MB-231. Description: Antiproliferative activity against human MDA-MB-231 cells at 13.33 uM incubated for 72 hrs by IncuCyte live-cell imaging analysis. The class given is functional, cell-based.
Data set [11] relates to MDA-MB-231. Description: Antiproliferative activity against human MDA-MB-231 cells at 40 uM incubated for 24 hrs by IncuCyte live-cell imaging analysis. The format is functional, cell-based.

Molecules are shown by their SMILES. The source made the active and inactive calls. No cut-off for these calls is given here.

The record followed here is ChEMBL document CHEMBL6127121, “Development of N-(4-(1H-Imidazol-1-yl)phenyl)-4-chlorobenzenesulfonamide, a Novel Potent Inhibitor of β-Catenin with Enhanced Antitumor Activity and Metabolic Stability” (J Med Chem, 2024).

For orientation: EC50 means the midpoint of the concentration-response curve. A lower EC50 goes with a more potent agent. In the case of `O=S(=O)(Nc1cccc(-c2ccoc2)c1)c1ccc(C(F)(F)F)cc1`, the Activity is 7.4% in the data set with SW480 [1] and 6.7% in the data set on HCT-116 [2]. Moreover, the EC50 in the data set on SW480 [3] and in the data set on HCT-116 [4] was over 50 µM in each case.
Take `COC(=O)c1ccc(NS(=O)(=O)c2ccc(Br)cc2)cc1`: the Activity turned out to be 19.4% in the data set on SW480 [1] and 2.5% in the data set on HCT-116 [2].
Regarding `O=S(=O)(Nc1ccc(-n2ccnc2)cc1)c1ccc(Br)cc1`, the Activity in the data set with SW480 [1] was determined as 7.2%; in the data set with HCT-116 [2], 6.4%. Further, the half-maximal effective concentration (EC50) in the data set on SW480 [3] and with HCT-116 [4] was over 50 µM throughout.
For orientation: half-life means the time in which the quantity being followed falls by half. Consider `CCOc1ccc2ccc(=O)oc2c1`, for which the microsomal CLint in [5] worked out at 94 µL/min/mg; in [7], 712 µL/min/mg. For the same compound, the half-life amounted to 14.8 min in data set [6] and 1.9 min in [8].
For the compound `O=S(=O)(Nc1ccc(-c2ccccc2)cc1)c1ccc(Br)cc1`, the Activity in the data set with SW480 [1] stood at 8.1%; in the data set on HCT-116 [2], 3.2%. Also, the EC50 in the data set on SW480 [3] turned out to be 31 µM; in the data set on HCT-116 [4], 27 µM.
For `O=S(=O)(Nc1ccc(-c2ccoc2)cc1)c1ccc(C(F)(F)F)cc1`, in that order: 4.4%, 9.7%, over 50 µM and over 55 µM.
On the same counts, the results for `O=S(=O)(Nc1cccc(-c2ccccc2)c1)c1ccc(C(F)(F)F)cc1` are 28.3%, 36.4%, 43 µM and 48 µM.
On the same counts, the results for `O=S(=O)(Nc1cccc(-c2ccccn2)c1)c1ccc(C(F)(F)F)cc1` are 3.4%, 6.6%, over 50 µM and over 50 µM.
Consider `O=S(=O)(Nc1ccc(-c2ccccc2)cc1)c1ccc(C(F)(F)F)cc1`, for which the Activity in the data set on SW480 [1] came out at 37.3%; in the data set with HCT-116 [2], 22.4%. The results for the concentration for a half-maximal effect (EC50) with SW480 [3] and with HCT-116 [4] were 8.7 µM and 12 µM, respectively.
On the same counts, the results for `O=S(=O)(Nc1ccc(-c2ccsc2)cc1)c1ccc(Br)cc1` are 3.7%, 8.6%, 27 µM and 32 µM.
As for `O=S(=O)(Nc1ccc(-c2ccoc2)cc1)c1ccc(Br)cc1`, the Activity amounted to 28.4% in the data set on SW480 [1] and 32.1% with HCT-116 [2]. Moreover, the concentration for a half-maximal effect (EC50) stood at 35 µM in the data set on SW480 [3] and 62 µM in the data set with HCT-116 [4].
For `O=S(=O)(Nc1ccc(-c2ccccn2)cc1)c1ccc(Br)cc1`, in that order: 8.8%, 4.3%, 34 µM and 24 µM.
For `O=S(=O)(Nc1cccc(-c2ccccn2)c1)c1ccc(-n2cccc2)cc1`, in that order: 6.3%, 6.4%, 46 µM and 66 µM.
For `CC(C)NCC(O)COc1cccc2ccccc12` (stereo not given) [PROPRANOLOL], in data set [6], the half-life is 35.2 min.
Regarding `O=S(=O)(Nc1cccc(-c2ccco2)c1)c1ccc(C(F)(F)F)cc1`, the values for the Activity in the data set on SW480 [1] and in the data set with HCT-116 [2] were 5.3% and 2.7%, respectively. Besides, the EC50 in the data set with SW480 [3] and with HCT-116 [4] was over 50 µM each time.
For `O=S(=O)(Nc1ccc(-c2ccco2)cc1)c1ccc(C(F)(F)F)cc1`, the Activity in the data set with SW480 [1] was found to be 6.6%; in the data set on HCT-116 [2] it was 2.4%. Moreover, the EC50 with SW480 [3] and in the data set with HCT-116 [4] was over 50 µM each time.
Take `O=S(=O)(Nc1ccc(-n2ccnc2)cc1)c1ccc(C(F)(F)F)cc1`: the figures for the Activity in the data set with SW480 [1] and with HCT-116 [2] were 6% and 4.4%, respectively. Also, the EC50 was found to be 14 µM in the data set with SW480 [3] and 16 µM in the data set with HCT-116 [4].
As to `O=S(=O)(Nc1cccc(-n2ccnc2)c1)c1ccc(C(F)(F)F)cc1`, the Activity in the data set on SW480 [1] was 9.1%; in the data set with HCT-116 [2] it was 5.1%. For the same compound, the EC50 stood at 28 µM with SW480 [3] and 50 µM in the data set with HCT-116 [4].
On the same counts, the results for `CCOC(=O)c1ccc(NS(=O)(=O)c2ccc(Br)cc2)cc1` are 21.6%, 18.8%, over 50 µM and over 50 µM.
As to `O=S(=O)(Nc1cccc(-n2ccnc2)c1)c1ccc(Cl)cc1`, the Activity worked out at 2.3% in the data set with SW480 [1] and 8.4% with HCT-116 [2]. In addition, the EC50 with SW480 [3] and in the data set with HCT-116 [4] was over 50 µM throughout.
Turning to `O=S(=O)(Nc1ccc(-c2ccsc2)cc1)c1ccc(C(F)(F)F)cc1`, the Activity amounted to 5.6% in the data set on SW480 [1] and 2.4% in the data set with HCT-116 [2]. In addition, the results for the EC50 in the data set on SW480 [3] and in the data set with HCT-116 [4] were 17 µM and 12 µM, respectively.
`O=S(=O)(Nc1cccc(-c2ccccc2)c1)c1ccc(Br)cc1`: the Activity with SW480 [1] was found to be 22.7%; with HCT-116 [2] it was 33.5%. The 50% effective concentration (EC50) in the data set on SW480 [3] is 12 µM; with HCT-116 [4] it was 9 µM. Besides, the outcome with MDA-MB-231 [9] and with MDA-MB-231 [10] was Active.
Consider `O=S(=O)(Nc1cccc(-c2ccccn2)c1)c1ccc(I)cc1`, for which the Activity with SW480 [1] was determined as 2.6%; with HCT-116 [2], 8.5%. Also, the half-maximal effective concentration (EC50) worked out at 25 µM with SW480 [3] and 39 µM with HCT-116 [4].
On the same counts, the results for `O=S(=O)(Nc1cccc(-n2ccnc2)c1)c1ccc(Br)cc1` are 3.6%, 3.1%, over 50 µM and over 50 µM.
In the case of `O=S(=O)(Nc1cccc(-c2ccsc2)c1)c1ccc(Br)cc1`, the Activity was determined as 2.7% in the data set on SW480 [1] and 0.8% with HCT-116 [2]. Further, the 50% effective concentration (EC50) in the data set with SW480 [3] turned out to be 25 µM; in the data set with HCT-116 [4], 19 µM. For the same compound, the result in the data set on MDA-MB-231 [9] and in the data set on MDA-MB-231 [11] was Active.
In the case of `O=c1[nH]cc(F)c(=O)[nH]1` [FLUOROURACIL], the half-maximal effective concentration (EC50) was 13.7 µM in the data set with SW480 [3] and 23.1 µM in the data set with HCT-116 [4].
Consider `O=S(=O)(Nc1cccc(-c2ccoc2)c1)c1ccc(Br)cc1`, for which the Activity was determined as 1.6% in the data set with SW480 [1] and 5.7% with HCT-116 [2]. Moreover, the EC50 turned out to be 38 µM with SW480 [3] and 35 µM with HCT-116 [4].
Regarding `O=C1[C@H](Cc2ccc(O)cc2)N2C(=O)CCN(C(=O)NCc3ccccc3)[C@H]2CN1Cc1cccc2ccccc12`, the result with MDA-MB-231 [11] was Active.
On to `O=S(=O)(Nc1ccc(-c2cccs2)cc1)c1ccc(C(F)(F)F)cc1`, for which the Activity with SW480 [1] stood at 26.6%; in the data set on HCT-116 [2], 33.1%. Also, the concentration giving a half-maximal response (EC50) in the data set on SW480 [3] stood at 45 µM; in the data set with HCT-116 [4], 39 µM.
